Test results published in patent US20120245137A1 (Zalicus Pharmaceuticals Ltd., priority 2009, published 2012).
Like-named read-outs stand apart in the source and are kept apart here.

Key:
Type in all cases: cell-based
T-type calcium channel [1] = target: T-type calcium channel (Homo sapiens, UniProt O43497); experiment: T-type channel blocking, FLIPR data (Table 6); settings: CAv3.1
Description: (§1) Another method, high-throughput spectrophotometric assay, utilizes loading of the cell lines with a fluorescent dye sensitive to intracellular calcium concentration and subsequent examination of the effects of compounds on the ability of depolarization by potassium chloride or other means to alter intracellular calcium levels.

T-type calcium channel [2] = target: T-type calcium channel (Homo sapiens, UniProt O95180); experiment: T-type channel blocking, FLIPR data (Table 6); settings: for CAv3.2 IC50 Ratio closed/inact.: CAv3.2, ratio closed/inactivated IC50
Description: as §1

Human Cav 2.2 channels = Human Cav 2.2 channels (Homo sapiens, UniProt Q00975); experiment: Fluorescent assay for CaV2.2 channels using potassium depolarization (VIPR/FLIPR); settings: FLIPR data; for CAv2.2 IC50 Ratio closed/inact.: ratio closed/inactivated IC50
Description: Human Cav 2.2 channels were stably expressed in HEK293 cells along with alpha2-delta and beta subunits of voltage-gated calcium channels. An inwardly rectifying potassium channel (Kir2.3) was also expressed in these cells to allow more precise control of the cell membrane potential by extracellular potassium concentration. At low bath potassium concentration, the membrane potential is relatively negative, and is depolarized as the bath potassium concentration is raised. In this way, the bath potassium concentration can be used to regulate the voltage-dependent conformations of the channels. […] After the incubation period, Cav2.2 channel opening is triggered by addition of higher concentration of potassium (70 mM final concentration) to further depolarize the cell. The degree of state-dependent block can be estimated from the inhibitory potency of compounds after incubation in different potassium concentrations.
Calcium influx through Cav 2.2 channels is determined using a calcium sensitive fluorescent dye in combination with a fluorescent plate reader. Fluorescent changes were measured with either a VIPR (Aurora Instruments) or FLIPR (Molecular Devices) plate reader.
1. Seed cells in Poly-D-Lysine Coated 96 or 384-well plate and keep in a 3rC-IO % C02 incubator overnight.
2. Remove media, wash cells with 0.2 mL (96-well plate) or 0.05 mL (384-well plate) Dulbecco's Phosphate Buffered Saline (D-PBS) with calcium & magnesium (Invitrogen; 14040).
3. Add 0.1 mL (96-well plate) or 0.05 mL (384-well plate) of 4˜M fluor-4 (Molecular Probes; F-14202) and 0.02% Pluronic acid (Molecular Probes; P-3(00) prepared in D-PBS with calcium & magnesium (Invitrogen; 14040) supplemented with 10 mM Glucose & 10 mM HepeslNaOH; pH 7.4.
4. Incubate in the dark at 25° C. for 60-70 min.
5. Remove dye, wash cells with 0.1 mL (96-well plate) or 0.06 mL (384-well plate) of 4, 12, 25, or 30 mM Potassium Pre-polarization Buffer (PPB).
6. Add 0.1 mL (96-well plate) or 0.03 mL (384-well plate) of 4, 12, 25, 30 mM PPB with or without test compound.
7. Incubate in the dark at 25° C. for 30 min
8. Read cell plate on VIPR instrument, Excitation=480 nm, Emission=535 nm.
9. With VIPR continuously reading, add 0.1 mL (96-well plate) or 0.03 mL (384-well plate) of Depolarization Buffer (DB), which is 2× the final assay concentration, to the cell plate.

CAv1.2 = CAv1.2 (Homo sapiens, UniProt Q13936); experiment: FLIPR data, CAv1.2 channel blocking (Table 6); settings: for CAv1.2 IC50 Ratio closed/inact.: ratio closed/inactivated IC50
[3] = CAv3.2, closed state, read-out: CAv3.2 IC50 Closed
[4] = CAv3.2, inactivated state, read-out: CAv3.2 IC50 Inact.
[5] = closed state, read-out: CAv2.2 IC50 Closed
[6] = inactivated state, read-out: CAv2.2 IC50 Inact.
[7] = closed state, read-out: CAv1.2 IC50 Closed
[8] = inactivated state, read-out: CAv1.2 IC50 Inact.

CAv1.2, sequence (Q13936 whole entry): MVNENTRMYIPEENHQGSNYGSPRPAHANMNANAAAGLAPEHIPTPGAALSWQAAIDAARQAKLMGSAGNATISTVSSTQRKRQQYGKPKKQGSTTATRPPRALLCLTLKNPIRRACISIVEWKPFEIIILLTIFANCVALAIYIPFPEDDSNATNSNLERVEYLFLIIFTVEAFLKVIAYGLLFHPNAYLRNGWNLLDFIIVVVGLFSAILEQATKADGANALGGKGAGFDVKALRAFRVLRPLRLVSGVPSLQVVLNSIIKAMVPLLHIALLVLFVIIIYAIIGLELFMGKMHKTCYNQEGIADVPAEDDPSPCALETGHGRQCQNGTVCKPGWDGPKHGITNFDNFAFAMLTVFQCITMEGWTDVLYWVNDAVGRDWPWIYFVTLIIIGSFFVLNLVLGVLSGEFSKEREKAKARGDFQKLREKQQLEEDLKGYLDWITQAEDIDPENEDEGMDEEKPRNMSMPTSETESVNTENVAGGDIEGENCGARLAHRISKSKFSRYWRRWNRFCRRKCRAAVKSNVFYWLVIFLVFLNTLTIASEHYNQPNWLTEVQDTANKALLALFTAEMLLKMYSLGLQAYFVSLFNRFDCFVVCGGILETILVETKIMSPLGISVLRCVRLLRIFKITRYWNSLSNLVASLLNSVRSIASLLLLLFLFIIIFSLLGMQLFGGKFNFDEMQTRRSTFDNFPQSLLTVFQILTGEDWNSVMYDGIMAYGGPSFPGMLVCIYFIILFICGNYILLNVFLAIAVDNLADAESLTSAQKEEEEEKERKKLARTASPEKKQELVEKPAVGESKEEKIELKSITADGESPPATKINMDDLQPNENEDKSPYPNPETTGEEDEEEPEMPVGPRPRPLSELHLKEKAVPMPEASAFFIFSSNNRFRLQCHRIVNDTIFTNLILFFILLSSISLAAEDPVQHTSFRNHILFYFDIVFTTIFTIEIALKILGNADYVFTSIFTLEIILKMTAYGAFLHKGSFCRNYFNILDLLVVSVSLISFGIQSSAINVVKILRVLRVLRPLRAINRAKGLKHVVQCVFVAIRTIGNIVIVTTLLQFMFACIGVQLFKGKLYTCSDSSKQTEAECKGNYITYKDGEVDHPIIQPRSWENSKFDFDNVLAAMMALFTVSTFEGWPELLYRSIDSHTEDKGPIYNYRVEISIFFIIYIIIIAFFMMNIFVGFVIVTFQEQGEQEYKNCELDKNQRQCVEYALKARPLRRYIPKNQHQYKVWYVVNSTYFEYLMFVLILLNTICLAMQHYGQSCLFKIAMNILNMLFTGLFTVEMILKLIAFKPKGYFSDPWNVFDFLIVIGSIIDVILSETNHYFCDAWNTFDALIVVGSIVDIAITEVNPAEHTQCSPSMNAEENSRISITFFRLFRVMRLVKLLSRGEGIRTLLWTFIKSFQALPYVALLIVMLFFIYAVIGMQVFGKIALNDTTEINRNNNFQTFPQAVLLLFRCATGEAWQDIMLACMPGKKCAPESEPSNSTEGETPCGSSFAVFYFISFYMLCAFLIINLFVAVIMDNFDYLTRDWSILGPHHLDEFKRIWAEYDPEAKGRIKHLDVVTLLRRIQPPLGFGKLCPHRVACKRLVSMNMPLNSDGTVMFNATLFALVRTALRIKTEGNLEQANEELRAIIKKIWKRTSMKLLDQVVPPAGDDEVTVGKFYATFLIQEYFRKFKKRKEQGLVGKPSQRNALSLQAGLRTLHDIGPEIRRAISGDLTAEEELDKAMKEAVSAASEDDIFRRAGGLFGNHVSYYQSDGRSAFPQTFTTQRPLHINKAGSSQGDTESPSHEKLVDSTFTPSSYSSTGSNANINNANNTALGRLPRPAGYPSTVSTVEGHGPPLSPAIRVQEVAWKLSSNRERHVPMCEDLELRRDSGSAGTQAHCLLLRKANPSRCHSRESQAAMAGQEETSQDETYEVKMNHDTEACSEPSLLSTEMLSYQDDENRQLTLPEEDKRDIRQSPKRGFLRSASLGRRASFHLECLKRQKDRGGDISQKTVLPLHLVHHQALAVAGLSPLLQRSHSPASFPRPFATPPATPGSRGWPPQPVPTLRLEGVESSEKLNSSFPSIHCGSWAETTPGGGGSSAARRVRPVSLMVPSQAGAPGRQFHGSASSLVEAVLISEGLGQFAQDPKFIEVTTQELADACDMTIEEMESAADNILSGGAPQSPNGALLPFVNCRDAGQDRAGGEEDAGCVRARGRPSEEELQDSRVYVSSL
CAv1.2, sequence (P54289 25-1103 partner): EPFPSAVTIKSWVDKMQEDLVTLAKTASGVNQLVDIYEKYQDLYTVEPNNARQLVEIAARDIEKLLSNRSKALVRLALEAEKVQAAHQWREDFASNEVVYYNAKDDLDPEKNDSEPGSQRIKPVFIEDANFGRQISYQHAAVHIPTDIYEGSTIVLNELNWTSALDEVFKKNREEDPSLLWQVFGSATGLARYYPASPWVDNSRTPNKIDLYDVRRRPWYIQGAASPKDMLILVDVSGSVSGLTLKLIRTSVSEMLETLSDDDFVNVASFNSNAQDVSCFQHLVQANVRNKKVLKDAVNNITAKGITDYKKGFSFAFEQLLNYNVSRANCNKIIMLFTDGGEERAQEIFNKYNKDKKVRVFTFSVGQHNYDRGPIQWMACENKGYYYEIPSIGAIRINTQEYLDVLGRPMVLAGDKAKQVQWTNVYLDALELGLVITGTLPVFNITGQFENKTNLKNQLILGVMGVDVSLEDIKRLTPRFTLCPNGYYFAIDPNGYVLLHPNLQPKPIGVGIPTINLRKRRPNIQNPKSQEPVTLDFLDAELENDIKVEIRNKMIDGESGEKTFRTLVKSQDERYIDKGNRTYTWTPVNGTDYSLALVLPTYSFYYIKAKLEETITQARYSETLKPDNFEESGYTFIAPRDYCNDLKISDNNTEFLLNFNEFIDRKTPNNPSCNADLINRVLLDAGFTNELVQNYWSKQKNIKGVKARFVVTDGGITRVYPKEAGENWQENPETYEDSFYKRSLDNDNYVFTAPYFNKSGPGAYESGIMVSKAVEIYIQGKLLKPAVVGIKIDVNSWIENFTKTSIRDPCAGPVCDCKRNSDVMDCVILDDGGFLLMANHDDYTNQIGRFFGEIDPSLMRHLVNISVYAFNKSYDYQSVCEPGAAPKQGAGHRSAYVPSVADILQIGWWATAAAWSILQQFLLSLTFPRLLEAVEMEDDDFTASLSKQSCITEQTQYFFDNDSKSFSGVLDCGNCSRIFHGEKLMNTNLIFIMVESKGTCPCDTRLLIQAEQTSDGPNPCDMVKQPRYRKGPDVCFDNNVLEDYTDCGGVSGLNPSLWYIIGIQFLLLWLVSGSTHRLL
CAv1.2, sequence (Q08289 whole entry partner): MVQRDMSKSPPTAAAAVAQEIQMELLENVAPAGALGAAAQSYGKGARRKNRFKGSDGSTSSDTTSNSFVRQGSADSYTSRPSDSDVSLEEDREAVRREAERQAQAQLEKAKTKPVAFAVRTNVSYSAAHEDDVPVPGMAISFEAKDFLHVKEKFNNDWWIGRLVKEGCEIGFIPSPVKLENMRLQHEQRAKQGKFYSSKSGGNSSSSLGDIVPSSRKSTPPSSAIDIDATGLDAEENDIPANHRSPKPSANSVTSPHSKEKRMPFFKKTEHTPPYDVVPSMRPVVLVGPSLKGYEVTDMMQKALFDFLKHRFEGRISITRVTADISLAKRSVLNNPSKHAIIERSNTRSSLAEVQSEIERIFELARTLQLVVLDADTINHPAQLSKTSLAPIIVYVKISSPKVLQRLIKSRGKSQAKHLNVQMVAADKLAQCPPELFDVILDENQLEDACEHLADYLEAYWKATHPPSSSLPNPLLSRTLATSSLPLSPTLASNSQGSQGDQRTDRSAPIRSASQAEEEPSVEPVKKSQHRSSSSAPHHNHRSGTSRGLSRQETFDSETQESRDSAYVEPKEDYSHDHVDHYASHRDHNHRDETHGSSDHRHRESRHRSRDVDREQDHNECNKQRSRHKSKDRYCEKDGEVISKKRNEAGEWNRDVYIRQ

SMILES	IC50 (T-type calcium channel [1])	IC50 (T-type calcium channel [2]; [3])	IC50 (T-type calcium channel [2]; [4])	CAv3.2 IC50 Ratio closed/inact. (T-type calcium channel [2])	IC50 (Human Cav 2.2 channels; [5])	IC50 (Human Cav 2.2 channels; [6])	CAv2.2 IC50 Ratio closed/inact. (Human Cav 2.2 channels)	IC50 (CAv1.2; [7])	IC50 (CAv1.2; [8])	CAv1.2 IC50 Ratio closed/inact. (CAv1.2)
O=C(NC[C@H]1C[C@H](S(=O)(=O)c2cccc(C(F)(F)F)c2)C1)c1ccc(C(F)(F)F)nc1 [Compound 571]	≥ 10 µM	≥ 10 µM	10 µM	1	10 µM	0.42 µM	23.8	≥ 10 µM	≥ 10 µM	
O=C(NC[C@H]1C[C@H](S(=O)(=O)c2cccc(C(F)(F)F)c2)C1)c1ccc(C(F)(F)F)cc1 [Compound 572]	8.16 µM	2.6 µM	1.68 µM	1.5	3.54 µM	0.27 µM	13.1	7.35 µM	3.01 µM	2.4
CC(C)([C@H]1C[C@@H](NC(=O)c2ccc(C(F)(F)F)cn2)C1)S(=O)(=O)c1cccc(C(F)(F)F)c1 [Compound 575]	≥ 10 µM	5.72 µM	4.45 µM	1.3	3.21 µM	0.28 µM	11.5	7.52 µM	5.36 µM	1.4
CC(C)([C@H]1C[C@@H](NC(=O)c2ccc(C(F)(F)F)nc2)C1)S(=O)(=O)c1cccc(C(F)(F)F)c1 [Compound 576]	≥ 10 µM	≥ 10 µM	9.9 µM	1	8.56 µM	0.44 µM	19.5	≥ 10 µM	9.62 µM	1
CC(C)([C@H]1C[C@@H](NC(=O)c2ccc(Cl)cn2)C1)S(=O)(=O)c1cccc(C(F)(F)F)c1 [Compound 578]	≥ 10 µM	7.71 µM	5.3 µM	1.5	3.46 µM	0.46 µM	7.5	9.07 µM	8.38 µM	1.1
CC(C)([C@H]1C[C@@H](NC(=O)c2cnc(C(F)(F)F)nc2)C1)S(=O)(=O)c1cccc(C(F)(F)F)c1 [Compound 579]	≥ 10 µM	≥ 10 µM	10 µM	1	10 µM	0.66 µM	15.2	≥ 10 µM	9.95 µM	1
CC(C)([C@H]1C[C@@H](NC(=O)c2ccc(Cl)cc2S(C)(=O)=O)C1)S(=O)(=O)c1cccc(C(F)(F)F)c1 [Compound 580]	≥ 10 µM	≥ 10 µM	10 µM	1	10 µM	0.26 µM	38.5	≥ 10 µM	≥ 10 µM	
CC(C)([C@H]1C[C@@H](NC(=O)c2ccc(C(F)(F)F)cc2)C1)S(=O)(=O)c1cccc(C(F)(F)F)c1 [Compound 581]	4.84 µM	3.07 µM	0.66 µM	4.7	2.43 µM	0.13 µM	18.7	3.87 µM	1.48 µM	2.6
CC(C)([C@H]1C[C@@H](NC(=O)c2ccc(OCC(F)(F)F)nc2)C1)S(=O)(=O)c1cccc(C(F)(F)F)c1 [Compound 582]	≥ 10 µM	4.35 µM	1.31 µM	3.3	2.88 µM	0.19 µM	15.2	5.77 µM	2.06 µM	2.8
